Laboratory results published in patent publication US20250179047A1, “5-[7-(3,4-DIHYDRO-1H-ISOQUINOLINE-2-CARBONYL)-1,2,3,4 TETRAHYDROISOQUINOLIN-6-YL]-1H-PYRROLE-3-CARBOXAMIDE DERIVATIVES, PHARMACEUTICAL COMPOSITIONS CONTAINING THEM AND THEIR USES AS PRO-APOPTOTIC AGENTS” (LES LABORATOIRES SERVIER, priority 2022, published 2025).
Read-outs that look alike come from different tables or passages of the source.

Tests used:
[1] = target: BCL2 WT (Homo sapiens (Human), UniProt P10415); assay: TR-FRET competitive binding assay, BCL2 WT
How it was run: (§1)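 Competitive TR-FRET displacement of fluorescein-PUMA peptide (2 or 20 nM) from 0.5 nM terbium-labelled N-terminal Halo-fusion BCL2 (1-207, wild type or mutant) or BCLXL (2-196), expressed in E. coli. Buffer 50 mM Hepes pH 7.5, 150 mM NaCl, 5% DMSO; 2 h at 23°C. 520/495 nm ratio fitted over 11 points for IC50, converted to Ki.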

[2] = target: BCL2 G101V (Homo sapiens, UniProt P10415, G101V); assay: TR-FRET competitive binding assay, BCL2 G101V; details: BCL2 G101V; Ki determined from IC50; read-out: TR_FRET EKI_Bcl2 G101V
How it was run: as §1

[3] = tested on: BCL2 G101V; assay: TR-FRET competitive binding assay, BCL2 G101V; design: species or system human; details: for TR_FRET EKI G101V/WT selectivty ratio: ratio Ki BCL2 G101V / Ki BCL2 WT; for TR_FRET EKI G101V/WT selectivty: ratio of Ki BCL2 G101V to BCL2 WT
How it was run: as §1

[4] = target: BCL2 D103Y (Homo sapiens, UniProt P10415, D103Y); assay: TR-FRET competitive binding assay, BCL2 D103Y; details: Ki determined from IC50, read-out: TR_FRET EKI_Bcl2 D103Y
How it was run: as §1

[5] = target: BCLXL WT (Homo sapiens (Human), UniProt Q07817); assay: TR-FRET competitive binding assay, BCLXL WT; details: for Ki: BCLXL WT, Ki determined from IC50, read-out: TR_FRET EKI BclxL; for TR_FRET EKI BCLxL/WT selectivty ratio: ratio Ki BCLxL / Ki BCL2 WT; for TR_FRET EKI BCLxL/WT selectivty: ratio of Ki BCLxL to BCL2 WT
How it was run: as §1

[6] = tested on: KMS-12-PE Bcl-2 WT; assay: In vitro cytotoxicity CellTiter-Glo 48 h, KMS-12-PE Bcl-2 WT; format: cell-based; details: Homo sapiens, KMS-12-PE, C50 = concentration needed to reach 50% of the cellular viability
How it was run: (§2)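 Bcl-2 WT- and G101V-expressing KMS-12-PE cells; 48 h treatment at 37 °C, 5% CO2; CellTiter-Glo ATP luminescence; C50 from 11-point curves.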

[7] = tested on: KMS-12-PE Bcl-2 G101V; assay: In vitro cytotoxicity CellTiter-Glo 48 h, KMS-12-PE Bcl-2 G101V; format: cell-based; details: for Ratio (G101V/WT): C50 KMS-12-PE Bcl-2 G101V over C50 KMS-12-PE Bcl-2 WT; for IC50: Homo sapiens, KMS-12-PE, 48 h, CellTiter-Glo, C50 = concentration needed to reach 50% of the cellular viability
How it was run: as §2

[8] = Ki determined from IC50, read-out: TR_FRET EKI_Bcl2 WT
[9] = Ki determined from IC50, read-out: TR_FRET EKI_Bcl2

Chain of BCLXL WT (Q07817 other isoform, or with tags, fused parts or gaps): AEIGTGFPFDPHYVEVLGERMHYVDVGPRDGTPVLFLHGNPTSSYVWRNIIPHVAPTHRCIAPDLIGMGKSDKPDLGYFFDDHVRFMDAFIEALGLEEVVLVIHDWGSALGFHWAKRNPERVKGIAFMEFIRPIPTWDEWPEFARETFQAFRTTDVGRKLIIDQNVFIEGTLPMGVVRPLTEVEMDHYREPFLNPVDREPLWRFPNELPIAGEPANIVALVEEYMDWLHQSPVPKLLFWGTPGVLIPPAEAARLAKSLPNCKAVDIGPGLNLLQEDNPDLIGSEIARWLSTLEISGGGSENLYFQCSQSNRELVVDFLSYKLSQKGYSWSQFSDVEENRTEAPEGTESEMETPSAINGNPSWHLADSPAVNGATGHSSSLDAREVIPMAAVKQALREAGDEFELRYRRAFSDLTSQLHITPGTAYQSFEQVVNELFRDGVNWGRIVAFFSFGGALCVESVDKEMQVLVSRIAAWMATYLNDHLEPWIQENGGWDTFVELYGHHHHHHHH

Row | Compound | Ki [1, 8] [nM] | Ki [2] [nM] | TR_FRET EKI G101V/WT selectivty ratio [3] | Ki [4] [nM] | Ki [5] [nM] | TR_FRET EKI BCLxL/WT selectivty ratio [5] | IC50 [6] [µM] | Ratio (G101V/WT) [7] | IC50 [7] [µM] | Ki [1, 9] [nM] | TR_FRET EKI G101V/WT selectivty [3] | TR_FRET EKI BCLxL/WT selectivty [5]
1 | CCOC[C@@H]1Cc2ccccc2CN1C(=O)c1cc2c(cc1-c1cc(C(=O)N(c3ccc(O)cc3)c3cc(C#N)n(C)c3C)c(C)n1C)CCN(C(=O)Cc1ccc(OCCN3CCOCC3)cc1F)C2 [Example 169, N-(5-cyano-1,2-dimethyl-pyrrol-3-yl)-5-[7-[(3S)-3-(ethoxymethyl)-3,4-dihydro-1H-isoquinoline-2-carbonyl]-2-[2-[2-fluoro-4-(2-morpholinoethoxy)phenyl]acetyl]-3,4-dihydro-1H-isoquinolin-6-yl]-N-(4-hydroxyphenyl)-1,2-dimethyl-pyrrole-3-carboxamide] | 0.09 | 0.4 | 4.6 | 0.36 | 1.2 | 12.8 | 0.0049 | 5.082 | 0.0248 | – | – | –
2 | Cc1c(N(C(=O)c2cc(-c3cc4c(cc3C(=O)N3Cc5ccccc5C[C@H]3COCC3CC3)CN(C(=O)Cc3ccc(OCCN5CCOCC5)cc3F)CC4)n(C)c2C)c2ccc(O)cc2)cc(C#N)n1C [Example 170, N-(5-cyano-1,2-dimethyl-pyrrol-3-yl)-5-[7-[(3S)-3-(cyclopropylmethoxymethyl)-3,4-dihydro-1H-isoquinoline-2-carbonyl]-2-[2-[2-fluoro-4-(2-morpholinoethoxy)phenyl]acetyl]-3,4-dihydro-1H-isoquinolin-6-yl]-N-(4-hydroxyphenyl)-1,2-dimethyl-pyrrole-3-carboxamide] | 0.3 | 1.3 | 4.3 | 1.06 | 4.5 | 15.0 | 0.0047 | 6.4831 | 0.0306 | – | – | –
3 | Cc1c(N(C(=O)c2cc(-c3cc4c(cc3C(=O)N3Cc5ccccc5C[C@H]3CN3CCCC3)CN(C(=O)Cc3c(F)cc(OCCN5CCOCC5)cc3F)CC4)n(C)c2C)c2ccc(O)cc2)cc(C#N)n1C [Example 171, N-(5-cyano-1,2-dimethyl-pyrrol-3-yl)-5-[2-[2-[2,6-difluoro-4-(2-morpholinoethoxy)phenyl]acetyl]-7-[(3S)-3-(pyrrolidin-1-ylmethyl)-3,4-dihydro-1H-isoquinoline-2-carbonyl]-3,4-dihydro-1H-isoquinolin-6-yl]-N-(4-hydroxyphenyl)-1,2-dimethyl-pyrrole-3-carboxamide] | 0.02 | 0.2 | 7.1 | 0.09 | 1.3 | 61.9 | 0.0128 | 4.7109 | 0.0603 | – | – | –
4 | COC[C@@H]1Cc2ccccc2CN1C(=O)c1cc2c(cc1-c1cc(C(=O)N(c3ccc(O)cc3)c3cc(C#N)n(C(F)F)c3C)c(C)n1C)CCN(C(=O)Cc1ccc(OCCN3CCOCC3)cc1)C2 [Example 172, N-[5-cyano-1-(difluoromethyl)-2-methyl-pyrrol-3-yl]-N-(4-hydroxyphenyl)-5-[7-[(3S)-3-(methoxymethyl)-3,4-dihydro-1H-isoquinoline-2-carbonyl]-2-[2-[4-(2-morpholinoethoxy)phenyl]acetyl]-3,4-dihydro-1H-isoquinolin-6-yl]-1,2-dimethyl-pyrrole-3-carboxamide] | 0.11 | 0.5 | 4.4 | 0.39 | 3.2 | 29.1 | 0.0061 | 4.6557 | 0.0284 | – | – | –
5 | Cc1c(N(C(=O)c2cc(-c3cc4c(cc3C(=O)N3Cc5ccccc5C[C@H]3CN3CCC5(CC5)C3)CN(C(=O)Cc3ccc(OCCN5CCOCC5)cc3F)CC4)n(C)c2C)c2ccc(O)cc2)cc(C#N)n1C [Example 176, 5-[7-[(3S)-3-(5-azaspiro[2.4]heptan-5-ylmethyl)-3,4-dihydro-1H-isoquinoline-2-carbonyl]-2-[2-[2-fluoro-4-(2-morpholinoethoxy)phenyl]acetyl]-3,4-dihydro-1H-isoquinolin-6-yl]-N-(5-cyano-1,2-dimethyl-pyrrol-3-yl)-N-(4-hydroxyphenyl)-1,2-dimethyl-pyrrole-3-carboxamide] | 0.03 | 0.2 | 5.8 | 0.16 | 2.3 | 74.2 | 0.0093 | 6.4155 | 0.0596 | – | – | –
6 | Cc1ncc(N(C(=O)c2cc(-c3cc4c(cc3C(=O)N3Cc5ccccc5C[C@H]3CN3CCCCC3)CN(C(=O)Cc3ccc(OCCN5CCOCC5)cc3F)CC4)n(C)c2C)c2ccc(O)cc2)cc1C#N [Example 177, N-(5-cyano-6-methyl-3-pyridyl)-5-[2-[2-[2-fluoro-4-(2-morpholinoethoxy)phenyl]acetyl]-7-[(3S)-3-(1-piperidylmethyl)-3,4-dihydro-1H-isoquinoline-2-carbonyl]-3,4-dihydro-1H-isoquinolin-6-yl]-N-(4-hydroxyphenyl)-1,2-dimethyl-pyrrole-3-carboxamide] | 0.05 | 0.5 | 10.0 | 0.12 | 12.4 | 229.0 | 0.0052 | 11.238 | 0.0581 | – | – | –
7 | COc1ccc(N(C(=O)c2cc(-c3cc4c(cc3C(=O)N3Cc5ccccc5C[C@H]3CN(C)C(C)C)CN(C(=O)Cc3ccc(OCCN5CCOCC5)cc3F)CC4)n(C)c2C)c2ccc(O)cc2)cc1C#N [Example 179, N-(3-cyano-4-methoxy-phenyl)-5-[2-[2-[2-fluoro-4-(2-morpholinoethoxy)phenyl]acetyl]-7-[(3S)-3-[[isopropyl(methyl)amino]methyl]-3,4-dihydro-1H-isoquinoline-2-carbonyl]-3,4-dihydro-1H-isoquinolin-6-yl]-N-(4-hydroxyphenyl)-1,2-dimethyl-pyrrole-3-carboxamide] | 0.04 | 0.6 | 14.7 | 0.13 | 6.1 | 148.0 | 0.0117 | 9.658 | 0.113 | – | – | –
8 | Cc1c(N(C(=O)c2cc(-c3cc4c(cc3C(=O)N3Cc5ccccc5C[C@H]3CN)CN(C(=O)Cc3ccc(OCCN5CCOCC5)cc3F)CC4)n(C)c2C)c2ccc(O)cc2)cc(C#N)n1C [Example 230] | – | 0.067 | – | 0.066 | 0.9 | – | 0.351 | 2.7 | 0.964 | 0.014 | 4.8 | 64.3
9 | Cc1c(N(C(=O)c2cc(-c3cc4c(cc3C(=O)N3Cc5ccccc5C[C@H]3C)CN(C(=O)Cc3ccc(OCCNCCF)cc3)CC4)n(C)c2C)c2ccc(O)cc2)cc(C#N)n1C [Example 235] | – | 0.13 | – | 0.11 | 0.89 | – | 0.0208 | 4.7 | 0.0968 | 0.031 | 4.2 | 28.7
